The subject of series [1] is red blood cell pyruvate kinase. The settings on record: over a broad range of PKLR genotypes; cited from earlier work.
In a further series the target is PKM2 (Homo sapiens, UniProt P14618). As to conditions: PKM2 activation; cited from earlier work.
Series [2] is described as follows: Pharmacokinetic analysis of the KHKi in vivo. Also on record: species or system mice. The settings on record: mouse.
The target in a further series is T1, KHK (Homo sapiens, UniProt P50053).
T1 construct: endogenous in cells; host or cells: HepG2 cells
T1 sequence (P50053 1-298): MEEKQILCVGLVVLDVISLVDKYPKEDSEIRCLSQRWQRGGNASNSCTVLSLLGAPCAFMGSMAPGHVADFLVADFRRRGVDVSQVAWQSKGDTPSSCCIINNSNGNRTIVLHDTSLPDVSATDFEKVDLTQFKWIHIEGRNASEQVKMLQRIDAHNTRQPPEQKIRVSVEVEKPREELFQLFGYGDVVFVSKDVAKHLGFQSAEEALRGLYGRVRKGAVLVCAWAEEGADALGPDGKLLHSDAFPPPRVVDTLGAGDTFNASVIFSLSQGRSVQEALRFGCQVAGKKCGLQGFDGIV
Description: 13C NMR of [2-13C]F1P in HepG2 cell extract with KHKi treatment. The format is cell-based. As to conditions: treatment at 4 hr in vitro. The source says:
FIGS. 11A-11C provide fructose converted to fructose-1-phosphate (F1P) and later to lactate in vivo measured in transformed hepatocytes (HepG2 cells) using [2-^13C] fructose. FIG. 11A provides ^13C NMR spectra of media containing [2-^13C] fructose exposed to HepG2 cells. FIG. 11B provides a quantification of fructose consumption by HepG2.
Translation of novel hyperpolarized probes into in vivo animal models represents a great technical advance in the exploration of the modulate metabolism induced by GLUT5-OV. Using the optimized probe formulation for HP fructose, the metabolic conversion of fructose is explored in vivo in the liver of wild type B6 mice, as previously shown. […] [2-^13C]F1P resonates downfield of the C2 pyranose resonance; in Example 1, this conversion was measured in transformed hepatocytes (HepG2 cells, FIG. 11) using [2-^13C] fructose. When further converted, C2 lactate is generated (resonating at 70 ppm) from fructose and this has been detected previously in vivo derived from HP glucose (Rodrigues et al. Nat Med 20, 93-97 (2014)) and pyruvate (Park et al. Magn Reson Med 75, 973-984 (2016)). All imaging studies are conducted under IACUC-approved protocol #13-12-019. Briefly, mice are imaged using a 3T Bruker MRI equipped with a dual tune ^1H/^13C volume coil. […] This is then extracted and labeled metabolites are measured by LC/MS and NMR. […]

The nature of series [3]: Blood, tumor and liver fructose after IP injection of fructose in B16 tumor bearing mice. Type of series: in vivo. As to the method: Further this supports that HP fructose reaches the tumor and provides a platform for imaging.
In order to determine the effect of fructose addition into GLUT5-OV T cells in vivo, the assay is optimized for delivering fructose into the tumor microenvironment. Specifically, three methods are tested, including: (i) intraperitoneal (IP) and (ii) intravenous (IV) injections of fructose, and (iii) water bottle with high-fructose corn syrup (HFCS). IP and IV injections (4 g/kg) are conducted daily and 25% HFCS in water is provided for three weeks; twice a week during this time the fructose level in circulating blood is measured and an endpoint tumor fructose measurement is taken. A B16 melanoma mouse model is utilized. Briefly, B16 cells (2×10^5) are engrafted subcutaneously into C57BL/6 mice and assayed on Day 7 post-tumor-engraftment. In a second cohort of mice, with the same conditions, co-administration of the KHKi^53 used in Example 3 is performed to block the uptake of the liver and small intestine (the predominant sites of fructose uptake and subsequent phosphorylation by KHK). As shown in Example 1, a single IP injection of fructose was piloted and both the tumors and liver were extracted after 1 hr (FIG. 12). […] Given this PK data, this dose of KHKi is explored using multiple routes of delivery. Specially, a dose of 10 mg/kg was used and administered IP at the same time as the fructose delivery. Fructose concentration is measured in the circulating blood as well as the endpoint tumor with all 3 delivery methods (n=10 mice per group, total of 80 mice) utilizing a standard kit assay. See Goncalves et al. Science 363, 1345-1349 (2019). Taken together, these experiments provide the necessary data to determine which fructose delivery method is best for the remaining experiments.
Results, potential challenges and alternative solutions: In some embodiments, high dose injections of fructose allows for a transient but substantial increase in blood as well as tumor fructose levels (>2 mM). It was found by Applicant that with a single IP injection of fructose the blood concentration can be raised to >10 mM and tumor concentration can be raised to >2 mM. The dosing schedule relative to T-cell action is further optimized. It is possible that the fructose levels of tumors can not be further elevated in vivo due to the action of the liver and gluconeogenesis. […] This is readily in the range of detection for HP MRI. It is possible that HP lactate can not be detected in tumors from fructose due to the cellularity. At the minimum, however, HP F6P can be detected, which was previously detected in tumors that overexpress GLUT5; this informs on the degree of fructose metabolism into glycolysis. […]

For series [4] the following is noted: PBS, pH 7.4; cited from earlier work.
Series [5] is described as follows: Hyperpolarized lifetime and polarization of HP fructose probes. Type of series: physicochemical. The source says:
FIG. 9A provides the mechanism for transport by GLUT5 and the first step of metabolism of fructose to fructofuranose-6-phosphate by hexokinase. FIG. 9B provides a T2-weighted image of a transgenic model of prostate cancer (TRAMP) mouse with tumor only on the right side of the prostate. Metabolic images of total hyperpolarized [2-^13C] fructose resonances (FIG. 9C) and the composite 0-fructofuranose-6-phosphate and β-fructofuranose (FIG. 9D) are shown overlaid on the T2 weighted image. Resonances corresponding to the β-fructopyranose and composite p-fructofuranose-6-phosphate and p-fructofuranose are shown in the corresponding spectral array (FIG. 9E). FIGS. 9A-9E adapted from Keshari et al. J Am Chem Soc. 2009 Dec. 9; 131(48):17591-6. […] An unassigned, spurious, low signal-to-noise resonance appears at 115 ppm. FIG. 9F provides a synthetic scheme for U-^2H-[2-^13C] fructose. The C2 is annotated by an C. FIG. 9G provides representative dynamic spectra of HP [2-^13C] fructose dissolved in D2O and HP U-^2H-[2-^13C] fructose dissolved in D20. Both solutions were approximately 30 mM and spectra acquired using 5° flip angle every 3 s.
Enhancement of hyperpolarized lifetimes using D2O solvation and application to HP fructose: In previous experiments, the necessary strategies and combined methods to develop not only novel probes for HP MRI but also bolus tracing experiments to confirm biochemistry in vivo. See Salamanca-Cardona et al. Cell Metab 26, 830-841 e833 (2017). While many molecular strategies have been developed for HP MRI, they generally suffer from short lifetimes (≤10 s) making flux through pathways of interest difficult to visualize in vivo. […] See Keshari et al. J Am Chem Soc 131, 17591-17596 (2009). In recent work, It was shown by the Applicant that utilization of rapid exchange between H2O and D2O can dramatically increase the lifetimes of the HP probes by greatly reducing dipolar relaxation. See Cho et al. J Magn Reson 295, 57-62 (2018). As such, a synthesis was developed for [2-^13C,U-^2H7] fructose at gram scale (FIG. 9F) as well as a preparation to hyperpolarize it. […]

[6] abbreviates: single IP injection of fructose.

Each structure is given as a SMILES string. ≈ marks a conversion by molar mass, not a printed value. A value given as a limit tells only on which side of the number the result lay.

Results on six compounds are retold here after US20250230215A1, “IMMUNE CELLS EXPRESSING GLUCOSE TRANSPORTER 5 (GLUT5) AND COMPOSITIONS AND METHODS INCLUDING THE SAME” (Memorial Sloan-Kettering Cancer Center, priority 2021, published 2025).

Chain of PKM2 (P14618 whole entry): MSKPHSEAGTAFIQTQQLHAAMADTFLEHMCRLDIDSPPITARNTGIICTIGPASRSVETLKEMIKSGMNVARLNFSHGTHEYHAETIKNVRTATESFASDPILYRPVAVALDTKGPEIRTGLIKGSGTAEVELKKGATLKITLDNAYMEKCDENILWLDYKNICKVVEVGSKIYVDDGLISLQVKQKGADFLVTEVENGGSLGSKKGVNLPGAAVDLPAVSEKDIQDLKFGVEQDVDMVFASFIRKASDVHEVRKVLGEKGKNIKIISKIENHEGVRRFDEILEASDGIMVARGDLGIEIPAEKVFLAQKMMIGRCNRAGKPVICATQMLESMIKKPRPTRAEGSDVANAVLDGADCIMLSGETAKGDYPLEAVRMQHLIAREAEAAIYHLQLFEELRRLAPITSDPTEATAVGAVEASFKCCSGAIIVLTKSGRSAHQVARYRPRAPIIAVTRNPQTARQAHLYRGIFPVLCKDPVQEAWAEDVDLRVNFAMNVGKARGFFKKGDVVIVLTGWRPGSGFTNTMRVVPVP

Take `O=C(c1ccc(NS(=O)(=O)c2cccc3cccnc23)cc1)N1CCN(CC2CC2)CC1` [AG 348]: the “effect on red blood cell pyruvate kinase” value in series [1] is “increases enzymatic activity, protein stability, and ATP levels”.
With `Nc1cccc(S(=O)(=O)N2CCCN(S(=O)(=O)c3ccc4c(c3)OCCO4)CC2)c1` [DASA-58], the AC90 on PKM2 was 680 nM.
By Cmax is commonly meant the highest concentration seen after dosing. A word on the half-life: it is the time in which the quantity being followed falls by half. Low values mean rapid decline, high ones slow decline. In series [2] (10 mg/kg, approximate conversion), `N#Cc1c(C(F)(F)F)cc(N2CCN(CCO)CC2)nc1N1CCCC(CO)C1` (centres unmarked) [KHKi, 6-(4-(2-Hydroxyethyl)piperazin-1-yl)-2-(3-(hydroxymethyl)-piperidin-1-yl)-4-(trifluoromethyl)nicotinonitrile] yielded a Cmax of about 1 µM. In series [2] (KHKi 10 mg/kg), this compound had a Cmax of 475 ng/mL and a half-life of 2 h. For the same compound, on KHK, the “change in F1P” value is “decrease in F1P”. Moreover, in series [3] (first attempt with the KHKi), the “extension of blood half-life of fructose” value is listed as 50%. In addition, in series [3] (single dose of KHKi with single IP injection of fructose, tumors extracted after 1 hr), the “tumor fructose with KHKi” value is given as “further enhanced”.
In general, aqueous solubility refers to how much of the substance goes into solution per volume. `Cn1c2cc([S+](C)[O-])sc2c2cnn(Cc3cccc(N)c3)c(=O)c21` (centres unmarked) [TEPP-46]: in series [4], the aqueous solubility was 79.5 µM (≈ 29.6 µg/mL).
With `[2H]C([2H])(O)[13C](=O)[C@@]([2H])(O)[C@]([2H])(O)[C@]([2H])(O)C([2H])([2H])O` [[2-^13C,U-^2H7] fructose], in series [5], the achieved polarization entry is on record as “greater than 10%”. This compound yielded a hyperpolarized lifetime in series [5] (D2O solvation) of 1.5 min. In addition, the “lifetime relative to previously shown” value in series [5] (versus HP [2-13C] fructose) was determined as 6 times.
On to `O=C(CO)[C@@H](O)[C@H](O)[C@H](O)CO` [fructose], for which, in series [3] (setting [6]), the “blood concentration of fructose” value is over 10000 µM and the “tumor concentration of fructose” value was over 2 mM.
